# Test results taken from US6248586A, “Antisense modulation of PKA catalytic subunit C-alpha expression” (Isis Pharmaceuticals, Inc., priority 1999, dated 2001).
# Tested on: human PKA catalytic subunit C-alpha mRNA
# Experiment: Inhibition of PKA catalytic subunit C-alpha mRNA levels in oligonucleotide-treated cells, quantitative real-time PCR
# Type: cell-based
# Parameters: concentration or dose not given beside the values
# Conditions: Table 1, phosphorothioate oligodeoxynucleotides, averages from two experiments
# Method: when cells reached 80% confluency, they were treated with oligonucleotide. For cells grown in 96-well plates, wells were washed once with 200 μL. OPTI-MEM™-1 reduced-serum medium (Gibco BRL) and then treated with 130 μL of OPTI-MEM™-1 containing 3.75 μg/mL LIPOFECTIN™ (Gibco BRL) and the desired concentration of oligonucleotide. After 4-7 hours of treatment, the medium was replaced with fresh medium. Cells were harvested 16-24 hours after oligonucleotide treatment.
# Poly(A)+ mRNA was isolated according to Miura et al., Clin. Chem., 1996, 42, 1758-1764. Other methods for poly(A)+ mRNA isolation are taught in, for example, Ausubel, F. M. et al., Current Protocols in Molecular Biology, Volume 1, pp. 4.5.1-4.5.3, John Wiley & Sons, Inc., 1993. Briefly, for cells grown on 96-well plates, growth medium was removed from the cells and each well was washed with 200 μL cold PBS. 60 μL lysis buffer (10 mM Tris-HCl, pH 7.6, 1 mM EDTA, 0.5 M NaCl, 0.5% NP-40, 20 mM vanadyl-ribonucleoside complex) was added to each well, the plate was gently agitated and then incubated at room temperature for five minutes. 55 μL of lysate was transferred to Oligo d(T) coated 96-well plates (AGCT Inc., Irvine Calif.). Plates were incubated for 60 minutes at room temperature, washed 3 times with 200 μL of wash buffer (10 mM Tris-HCl pH 7.6, 1 mM EDTA, 0.3 M NaCl). After the final wash, the plate was blotted on paper towels to remove excess wash buffer and then air-dried for 5 minutes. 60 μL of elution buffer (5 mM Tris-HCl pH 7.6), preheated to 70° C. was added to each well, the plate was incubated on a 90° C. hot plate for 5 minutes, and the eluate was then transferred to a fresh 96-well plate.
# Quantitat:ion of PKA catalytic subunit C-alpha mRNA levels was determined by real-time quantitative PCR using the ABI PRISM™ […] Sequence Detection System (PE-Applied Biosystems, Foster City, Calif.) according to manufacturer's instructions. This is a closed-tube, non-gel-based, fluorescence detection system which allows high-throughput quantitation of polymerase chain reaction (PCR) products in real-time. As opposed to standard PCR, in which amplification products are quantitated after the PCR is completed, products in real-time quantitative PCR are quantitated as they accumulate. This is accomplished by including in the PCR reaction an oligonucleotide probe that anneals specifically between the forward and reverse PCR primers, and contains two fluorescent dyes. A reporter dye (e.g., JOE, FAM, or VIC, obtained from either Operon Technologies Inc., Alameda, Calif. or PE-Applied Biosystems, Foster City, Calif.) is attached to the 5' end of the probe and a quencher dye (e.g., TAMRA, obtained from either Operon Technologies Inc., Alameda, Calif. or PE-Applied Biosystems, Foster City, Calif.) is attached to the 3' end of the probe. When the probe and dyes are intact, reporter dye emission is quenched by the proximity of the 3' quencher dye. During amplification, annealing of the probe to the target sequence creates a substrate that can be cleaved by the 5'-exonuclease activity of Taq polymerase. […] With each cycle, additional reporter dye molecules are cleaved from their respective probes, and the fluorescence intensity is monitored at regular intervals by laser optics built into the ABI PRISM™ 7700 Sequence Detection System. In each assay, a series of parallel reactions containing serial dilutions of mRNA from untreated control samples generates a standard curve that is used to quantitate the percent inhibition after antisense oligonucleotide treatment of test samples.
# PCR reagents were obtained from PE-Applied Biosystems, Foster City, Calif. […]
row,Substance,% Inhibition of PKA catalytic subunit C-alpha mRNA levels [%]
1,102436 (antisense TGGCTGCGGCCGGCGGCCCG; chemistry not given here) [compound 102436],49
2,102438 (antisense GCGGCGGGTGCTGGCTGCGG; chemistry not given here) [compound 102438],15
3,102440 (antisense TCGCGGCGGCGGCGGCCGGG; chemistry not given here) [compound 102440],19
4,102442 (antisense CATCGCGGCGGCGGCGGCCG; chemistry not given here) [compound 102442],49
5,102444 (antisense CCCATCGCGGCGGCGGCGGC; chemistry not given here) [compound 102444],47
6,102446 (antisense TGCCCATCGCGGCGGCGGCG; chemistry not given here) [compound 102446],29
7,102448 (antisense GTTGCCCATCGCGGCGGCGG; chemistry not given here) [compound 102448],47
8,102450 (antisense GCGTTGCCCATCGCGGCGGC; chemistry not given here) [compound 102450],64
9,102454 (antisense CGGCGTTGCCCATCGCGGCG; chemistry not given here) [compound 102454],53
10,102458 (antisense GGCGGCGTTGCCCATCGCGG; chemistry not given here) [compound 102458],69
11,102462 (antisense GCGGCGGCGTTGCCCATCGC; chemistry not given here) [compound 102462],67
12,102466 (antisense CGGCGGCGGCGTTGCCCATC; chemistry not given here) [compound 102466],79
13,102470 (antisense GGCGGCGGCGGCGTTGCCCA; chemistry not given here) [compound 102470],49
14,102474 (antisense ATTCTTTCACGCTCTCCTGC; chemistry not given here) [compound 102474],3
15,102478 (antisense CAAACTGATCCAAGTGGGCT; chemistry not given here) [compound 102478],73
16,102482 (antisense CCAGCATCACCCGCCCGAAG; chemistry not given here) [compound 102482],66
17,102486 (antisense CTTCTGTTTGTCGAGGATCT; chemistry not given here) [compound 102486],51
18,102490 (antisense GCTTGCAGGATGCGCTTTTC; chemistry not given here) [compound 102490],66
19,102494 (antisense GTTGTCCTTGAAGGAGAACT; chemistry not given here) [compound 102494],0
20,102498 (antisense GAACATCTCCCCGCCGGGCA; chemistry not given here) [compound 102498],13

row,Substance,% Inhibition of PKA catalytic subunit C-alpha mRNA levels [%]
1,102502 (antisense TAGATGAGATCCAGCGAGTG; chemistry not given here) [compound 102502],28
2,102506 (antisense GCGGCCCTTCACGCGCTTGG; chemistry not given here) [compound 102506],0
3,102510 (antisense TCTGCGAAGAAGGGCGGGTA; chemistry not given here) [compound 102510],0
4,102514 (antisense TCCTTCAAGTCAGAGCTGAA; chemistry not given here) [compound 102514],44
5,102518 (antisense AAACCACTTGTGGTTCTTGA; chemistry not given here) [compound 102518],34
6,102522 (antisense CTTCCTCATAGTCGTCAAAG; chemistry not given here) [compound 102522],32
7,102526 (antisense GGCATGCCCCTAAAACTCAG; chemistry not given here) [compound 102526],45
8,102530 (antisense GGAGCAGCTGGTGTTTCTGT; chemistry not given here) [compound 102530],39
9,102534 (antisense TTGGCGCTTCGTTCATTTGC; chemistry not given here) [compound 102534],39
10,102538 (antisense AAGCAACCCACTGAACATGT; chemistry not given here) [compound 102538],38
11,102543 (antisense GCTTCTCTTTAAAATGGATT; chemistry not given here) [compound 102543],16
12,102547 (antisense ACCCTCGCAGGATTGGCAGA; chemistry not given here) [compound 102547],53
13,102553 (antisense CGCTGCTGGGAGGAAAGACT; chemistry not given here) [compound 102553],52
14,102558 (antisense TGCAGGGATGCCCTCCCCAC; chemistry not given here) [compound 102558],65
15,102563 (antisense CCTTGAACCCCGGGCCGTGG; chemistry not given here) [compound 102563],56
16,102568 (antisense CAGGCAGCCCCTCCCCAGCA; chemistry not given here) [compound 102568],49
17,102573 (antisense AGCACAAATGAGAAAGTGGG; chemistry not given here) [compound 102573],7
18,102579 (antisense TGGCTCCCCAGCGGCTCCCC; chemistry not given here) [compound 102579],36
19,102584 (antisense CACACAGGTTGAATCGCCCC; chemistry not given here) [compound 102584],61
20,102589 (antisense TAGTTTTCAAATATGTTTAC; chemistry not given here) [compound 102589],0

# Same assay, conditions: Table 2, chimeric phosphorothioate 2'-MOE gapmers, averaged from two experiments
row,Substance,% Inhibition of PKA catalytic subunit C-alpha mRNA levels [%]
1,102594 (antisense TGGCTGCGGCCGGCGGCCCG; chemistry not given here) [compound 102594],55
2,102599 (antisense GCGGCGGGTGCTGGCTGCGG; chemistry not given here) [compound 102599],77
3,102604 (antisense TCGCGGCGGCGGCGGCCGGG; chemistry not given here) [compound 102604],70
4,102609 (antisense CATCGCGGCGGCGGCGGCCG; chemistry not given here) [compound 102609],66
